Data taken from publication PMC5791972 (PLoS ONE, 2018).
Where two headings read alike, the source gives them in different places.

Key:
[1] = biological target: T1, MAO-A (Rattus norvegicus, UniProt P21396); format: binding; conditions: 1 h, 1.0E-06 M
T1 construct: tissue Cerep; host or cells: rat cerebral cortex
T1 sequence (P21396 1-526): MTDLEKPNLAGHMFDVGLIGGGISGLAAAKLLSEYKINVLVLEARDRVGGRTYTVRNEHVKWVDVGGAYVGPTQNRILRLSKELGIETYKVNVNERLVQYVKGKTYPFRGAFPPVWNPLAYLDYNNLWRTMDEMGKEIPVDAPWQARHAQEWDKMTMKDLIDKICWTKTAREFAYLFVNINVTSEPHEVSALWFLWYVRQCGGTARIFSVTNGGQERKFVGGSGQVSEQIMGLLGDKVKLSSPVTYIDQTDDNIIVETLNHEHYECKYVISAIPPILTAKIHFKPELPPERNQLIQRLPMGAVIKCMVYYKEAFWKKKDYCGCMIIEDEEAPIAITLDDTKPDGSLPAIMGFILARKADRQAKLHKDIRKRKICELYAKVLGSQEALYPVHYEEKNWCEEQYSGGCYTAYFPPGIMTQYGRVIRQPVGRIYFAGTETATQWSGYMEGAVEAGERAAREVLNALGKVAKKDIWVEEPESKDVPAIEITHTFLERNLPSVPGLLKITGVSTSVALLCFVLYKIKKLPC

[2] = biological target: T2, human TRPC5 (hTRPC5) (Homo sapiens, UniProt Q9UL62); assay: Fluorometric calcium influx assay; format: cell-based; conditions: indicator-assisted calcium influx, 1 pM to 1 μM, n = 8
T2 construct: The cDNAs for various full-length ion channels were subcloned into pcDNA5/TO; expressed in transfected cells
T2 sequence (Q9UL62 whole entry): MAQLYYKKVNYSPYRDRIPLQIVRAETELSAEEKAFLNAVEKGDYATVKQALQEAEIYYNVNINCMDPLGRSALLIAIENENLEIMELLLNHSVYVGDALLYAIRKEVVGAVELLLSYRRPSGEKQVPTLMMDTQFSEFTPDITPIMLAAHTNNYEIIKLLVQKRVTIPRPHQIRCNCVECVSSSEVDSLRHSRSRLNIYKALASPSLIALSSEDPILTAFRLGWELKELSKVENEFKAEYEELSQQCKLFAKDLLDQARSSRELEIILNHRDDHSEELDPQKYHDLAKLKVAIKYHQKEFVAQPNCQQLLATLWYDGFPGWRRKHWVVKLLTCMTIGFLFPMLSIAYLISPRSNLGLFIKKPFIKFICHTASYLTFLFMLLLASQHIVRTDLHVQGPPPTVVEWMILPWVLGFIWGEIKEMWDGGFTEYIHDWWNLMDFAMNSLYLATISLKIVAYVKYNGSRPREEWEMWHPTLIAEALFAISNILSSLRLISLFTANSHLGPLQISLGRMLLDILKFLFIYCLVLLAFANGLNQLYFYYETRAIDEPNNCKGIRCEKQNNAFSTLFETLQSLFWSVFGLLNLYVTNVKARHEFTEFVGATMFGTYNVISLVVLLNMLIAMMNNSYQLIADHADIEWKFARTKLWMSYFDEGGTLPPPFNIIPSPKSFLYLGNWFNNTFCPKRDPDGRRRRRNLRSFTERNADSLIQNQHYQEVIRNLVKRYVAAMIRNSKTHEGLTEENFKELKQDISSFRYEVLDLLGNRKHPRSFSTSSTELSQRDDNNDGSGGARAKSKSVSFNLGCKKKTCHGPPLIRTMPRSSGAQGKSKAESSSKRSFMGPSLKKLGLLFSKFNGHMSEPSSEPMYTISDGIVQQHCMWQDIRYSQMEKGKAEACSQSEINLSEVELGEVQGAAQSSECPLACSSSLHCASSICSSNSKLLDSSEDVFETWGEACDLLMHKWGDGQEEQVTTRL

[3] = biological target: T3, hTRPC1/hTRPC5 (Homo sapiens, UniProt Q9UL62); assay: Whole-cell manual patch clamp; format: cell-based
T3 construct: The cDNAs for various full-length ion channels were subcloned into pcDNA5/TO; expressed in transfected cells; host or cells: heterologous co-expression
T3 sequence (Q9UL62 whole entry): as above
T3 sequence (P48995 whole entry partner): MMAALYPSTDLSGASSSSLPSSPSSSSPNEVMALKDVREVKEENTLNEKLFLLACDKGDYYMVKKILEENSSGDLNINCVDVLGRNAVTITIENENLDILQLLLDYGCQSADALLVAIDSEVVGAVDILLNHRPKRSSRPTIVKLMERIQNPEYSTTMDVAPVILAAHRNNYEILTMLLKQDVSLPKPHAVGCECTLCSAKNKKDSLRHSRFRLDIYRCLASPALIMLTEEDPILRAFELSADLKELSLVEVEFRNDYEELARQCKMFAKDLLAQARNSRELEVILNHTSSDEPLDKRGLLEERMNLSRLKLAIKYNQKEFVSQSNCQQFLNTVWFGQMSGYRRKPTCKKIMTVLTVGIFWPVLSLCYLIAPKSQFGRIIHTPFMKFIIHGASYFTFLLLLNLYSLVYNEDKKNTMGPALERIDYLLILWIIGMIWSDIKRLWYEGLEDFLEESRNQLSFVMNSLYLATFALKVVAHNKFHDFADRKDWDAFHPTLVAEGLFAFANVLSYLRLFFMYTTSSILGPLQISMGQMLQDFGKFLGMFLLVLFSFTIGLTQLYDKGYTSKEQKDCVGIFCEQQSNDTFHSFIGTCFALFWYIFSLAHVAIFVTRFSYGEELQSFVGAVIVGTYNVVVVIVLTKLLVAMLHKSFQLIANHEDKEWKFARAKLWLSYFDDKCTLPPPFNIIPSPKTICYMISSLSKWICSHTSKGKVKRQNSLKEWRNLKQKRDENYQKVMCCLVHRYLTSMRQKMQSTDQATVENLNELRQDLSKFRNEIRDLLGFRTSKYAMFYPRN

[4] = biological target: T4, Kv1.3 (Homo sapiens, UniProt P22001); assay: Ion channel selectivity patch clamp; format: cell-based; conditions: Voltage (+20 mV)
T4 construct: expressed in transfected cells
T4 sequence (P22001 whole entry): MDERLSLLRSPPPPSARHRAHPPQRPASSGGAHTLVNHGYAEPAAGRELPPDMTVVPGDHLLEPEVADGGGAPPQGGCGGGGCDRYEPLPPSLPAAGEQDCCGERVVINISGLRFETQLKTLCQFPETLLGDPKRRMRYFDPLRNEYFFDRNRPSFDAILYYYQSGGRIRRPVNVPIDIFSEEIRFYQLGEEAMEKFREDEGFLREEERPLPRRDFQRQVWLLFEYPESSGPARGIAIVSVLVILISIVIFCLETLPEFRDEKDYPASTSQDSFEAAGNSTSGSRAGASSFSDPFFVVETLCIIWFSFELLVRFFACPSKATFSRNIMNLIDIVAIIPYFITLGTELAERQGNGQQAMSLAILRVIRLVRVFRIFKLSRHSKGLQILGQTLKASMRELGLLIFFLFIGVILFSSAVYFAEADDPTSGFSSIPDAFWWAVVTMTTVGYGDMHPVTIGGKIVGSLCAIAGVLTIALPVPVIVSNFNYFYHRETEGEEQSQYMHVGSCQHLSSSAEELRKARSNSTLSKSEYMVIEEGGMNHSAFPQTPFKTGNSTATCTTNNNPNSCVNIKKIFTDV

[5] = biological target: T5, α2C (h) (Homo sapiens, UniProt P18825); format: binding; conditions: 1.0E-06 M
T5 construct: host or cells: CHO cells
T5 sequence (P18825 1-462): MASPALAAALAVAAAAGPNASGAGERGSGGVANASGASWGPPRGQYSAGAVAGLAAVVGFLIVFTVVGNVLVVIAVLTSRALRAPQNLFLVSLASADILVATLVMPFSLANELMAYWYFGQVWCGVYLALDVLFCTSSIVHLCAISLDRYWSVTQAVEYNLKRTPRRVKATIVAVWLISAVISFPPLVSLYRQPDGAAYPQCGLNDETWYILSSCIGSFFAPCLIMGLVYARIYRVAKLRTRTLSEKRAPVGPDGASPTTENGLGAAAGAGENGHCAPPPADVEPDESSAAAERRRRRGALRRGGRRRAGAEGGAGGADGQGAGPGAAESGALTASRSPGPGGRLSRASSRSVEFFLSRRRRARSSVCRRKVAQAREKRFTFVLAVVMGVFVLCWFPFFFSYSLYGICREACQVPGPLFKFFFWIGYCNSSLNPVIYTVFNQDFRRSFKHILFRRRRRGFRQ

[6] = system: kainate; format: binding, rat; conditions: 1.0E-06 M
[7] = biological target: T6, MC4 (h) (Homo sapiens, UniProt P32245); format: binding; conditions: 1.0E-06 M
T6 construct: host or cells: CHO cells
T6 sequence (P32245 whole entry): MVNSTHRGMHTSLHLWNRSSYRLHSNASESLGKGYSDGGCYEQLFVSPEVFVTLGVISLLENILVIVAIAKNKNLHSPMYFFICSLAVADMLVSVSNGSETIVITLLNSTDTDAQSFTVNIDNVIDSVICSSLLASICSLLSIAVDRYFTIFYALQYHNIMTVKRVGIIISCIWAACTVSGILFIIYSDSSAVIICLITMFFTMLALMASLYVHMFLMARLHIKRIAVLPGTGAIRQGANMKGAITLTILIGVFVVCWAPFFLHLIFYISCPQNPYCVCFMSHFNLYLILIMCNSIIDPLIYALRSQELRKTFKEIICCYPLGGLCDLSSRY

[8] = biological target: sst4 (h) (Homo sapiens, UniProt P31391); format: binding; conditions: 1.0E-06 M
sst4 (h), sequence (P31391 whole entry): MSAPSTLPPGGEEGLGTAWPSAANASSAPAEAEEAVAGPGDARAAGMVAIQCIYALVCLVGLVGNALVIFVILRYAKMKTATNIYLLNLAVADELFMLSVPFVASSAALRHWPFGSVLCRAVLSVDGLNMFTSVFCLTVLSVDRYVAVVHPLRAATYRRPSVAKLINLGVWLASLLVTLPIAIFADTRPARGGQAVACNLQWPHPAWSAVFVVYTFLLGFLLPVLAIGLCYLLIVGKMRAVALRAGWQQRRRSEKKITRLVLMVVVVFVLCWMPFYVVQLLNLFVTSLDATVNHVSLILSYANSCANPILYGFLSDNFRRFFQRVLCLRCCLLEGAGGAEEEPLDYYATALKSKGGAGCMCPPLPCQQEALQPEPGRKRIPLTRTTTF

[9] = system: Na+ channel (site 2); format: binding, rat; conditions: 1.0E-06 M
[10] = biological target: T7, M4 (h) (Homo sapiens, UniProt P08173); assay: biochemical
T7 sequence (P08173 1-479): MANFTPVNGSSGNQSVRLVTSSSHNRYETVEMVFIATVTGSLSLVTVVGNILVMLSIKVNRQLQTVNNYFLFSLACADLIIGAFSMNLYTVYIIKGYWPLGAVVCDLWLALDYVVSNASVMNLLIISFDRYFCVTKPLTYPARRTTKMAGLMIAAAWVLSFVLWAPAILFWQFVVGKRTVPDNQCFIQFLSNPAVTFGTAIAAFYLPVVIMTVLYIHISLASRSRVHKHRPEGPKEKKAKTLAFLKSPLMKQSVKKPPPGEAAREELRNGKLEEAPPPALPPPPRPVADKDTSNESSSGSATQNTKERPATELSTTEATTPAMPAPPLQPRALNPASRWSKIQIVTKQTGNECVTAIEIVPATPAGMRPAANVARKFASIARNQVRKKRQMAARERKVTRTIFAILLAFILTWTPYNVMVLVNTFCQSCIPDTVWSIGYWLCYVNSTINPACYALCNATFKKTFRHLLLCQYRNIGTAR

[11] = biological target: κ (KOP) (Rattus norvegicus, UniProt P34975); assay: biochemical
κ (KOP), sequence (P34975 whole entry): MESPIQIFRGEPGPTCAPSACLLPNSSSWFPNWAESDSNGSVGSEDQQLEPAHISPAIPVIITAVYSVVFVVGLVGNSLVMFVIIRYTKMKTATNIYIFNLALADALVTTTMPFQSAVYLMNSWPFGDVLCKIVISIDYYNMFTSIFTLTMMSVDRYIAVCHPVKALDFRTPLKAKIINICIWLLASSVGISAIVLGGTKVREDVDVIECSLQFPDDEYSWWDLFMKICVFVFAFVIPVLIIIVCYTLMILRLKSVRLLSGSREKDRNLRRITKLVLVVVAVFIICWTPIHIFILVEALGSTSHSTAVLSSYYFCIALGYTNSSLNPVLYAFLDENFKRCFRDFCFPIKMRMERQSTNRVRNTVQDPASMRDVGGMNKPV

[12] = biological target: μ (MOP) (h) (Homo sapiens, UniProt P35372); assay: biochemical
μ (MOP) (h), sequence (P35372 whole entry): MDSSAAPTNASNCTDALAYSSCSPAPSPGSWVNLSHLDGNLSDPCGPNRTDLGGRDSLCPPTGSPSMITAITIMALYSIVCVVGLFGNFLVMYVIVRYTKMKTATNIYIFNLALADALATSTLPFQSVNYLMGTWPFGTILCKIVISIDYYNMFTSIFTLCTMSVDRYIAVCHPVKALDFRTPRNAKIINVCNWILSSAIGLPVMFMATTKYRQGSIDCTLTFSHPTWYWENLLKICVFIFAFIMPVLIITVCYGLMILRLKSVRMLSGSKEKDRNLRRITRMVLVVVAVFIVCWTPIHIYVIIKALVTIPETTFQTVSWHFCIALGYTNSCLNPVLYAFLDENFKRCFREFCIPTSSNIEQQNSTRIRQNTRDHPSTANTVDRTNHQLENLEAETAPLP

Cn1c(=O)n(CCCO)c(=O)c2c1nc(Oc1cccc(Cl)c1)n2Cc1ccc(Cl)cc1 [HC-070]
inhibition at 1 µM ([1]; read-out: % Inhibition 1st): 12.6%
inhibition at 1 µM ([1]; read-out: % Inhibition 2nd): 13.1%
inhibition at 1 µM ([1]; read-out: % Inhibition Mean): 12.8%

Cn1c(=O)n(CCCO)c(=O)c2c1nc(Oc1cccc(OC(F)(F)F)c1)n2Cc1ccc(Cl)cc1 [HC-608]
IC50 [2]: 6.2 ± 0.5 nM
IC50 ([3]; 20 μM carbachol/M1R): ~4.7 nM
IC50 ([3]; La3+ (80 μM)): ~1.4 nM
IC50 [4]: 1050 ± 340 nM
inhibition at 1 µM ([5]; read-out: % Inhibition 1st): -4.1%
inhibition at 1 µM ([5]; read-out: % Inhibition 2nd): -10.2%
inhibition at 1 µM ([5]; read-out: % Inhibition Mean): -7.1%
% Inhibition 1st [6]: 5.9%
% Inhibition 2nd [6]: 5.3%
% Inhibition Mean [6]: 5.6%
inhibition at 1 µM ([7]; read-out: % Inhibition 1st): 2.9%
inhibition at 1 µM ([7]; read-out: % Inhibition 2nd): -4.8%
inhibition at 1 µM ([7]; read-out: % Inhibition Mean): -1%
inhibition at 1 µM ([1]; read-out: % Inhibition 1st): -3.8%
inhibition at 1 µM ([1]; read-out: % Inhibition 2nd): 3.6%
inhibition at 1 µM ([1]; read-out: % Inhibition Mean): -0.1%
inhibition at 1 µM ([8]; read-out: % Inhibition 1st): -27%
inhibition at 1 µM ([8]; read-out: % Inhibition 2nd): 9.5%
inhibition at 1 µM ([8]; read-out: % Inhibition Mean): -8.8%
% Inhibition 1st [9]: 12%
% Inhibition 2nd [9]: -7.3%
% Inhibition Mean [9]: 2.3%
inhibition at 1 µM ([10]; read-out: % Inhibition 1st): -16.1%
inhibition at 1 µM ([10]; read-out: % Inhibition 2nd): 3.9%
inhibition at 1 µM ([10]; read-out: % Inhibition Mean): -6.1%
inhibition at 1 µM ([11]; read-out: % Inhibition 1st): -8.1%
inhibition at 1 µM ([11]; read-out: % Inhibition 2nd): 1.1%
inhibition at 1 µM ([11]; read-out: % Inhibition Mean): -3.5%
inhibition at 1 µM ([12]; read-out: % Inhibition 1st): 0.1%
inhibition at 1 µM ([12]; read-out: % Inhibition 2nd): -6.8%
inhibition at 1 µM ([12]; read-out: % Inhibition Mean): -3.3%
